Results published in US4507487A, “Chemical compounds” (Bristol-Myers Company, priority 1983, dated 1985).
Converted amounts (≈) assume the structure as drawn. Like-named read-outs stand apart in the source and are kept apart here.

Assays:
Format in all cases: cell-based
[1] = tested on: Penicillinresistant S. aureus; assay: MIC, two-fold serial agar dilution in Mueller-Hinton agar, group (G+)-Ib; settings: Staphylococcus aureus, read-out: Geometric Mean of MIC
Method: (§1) In the primary evaluation of the compounds of this invention, the Minimum Inhibitory Concentrations (MIC's) of the compounds were determined by the two-fold serial agar dilution method in Mueller-Hinton agar against 32 strains of test organisms in six groups.
(G+)Ib: Penicillinresistant S. aureus (5 strains)

K. pneumoniae A9867 = assay: MIC against specific test organism; settings: Klebsiella pneumoniae; K. pneumoniae A9867, cephalothin-resistant strain; read-out: Minimum Inhibitory Concentration
Method: as §1
(§2) The test method was as described for Table 1.

Ps. aeruginosa A20717 = assay: MIC against specific test organism; settings: Pseudomonas aeruginosa, read-out: Minimum Inhibitory Concentration
Method: as §1, §2

M. morganii A9553 = assay: MIC against specific test organism; settings: Morganella morganii, read-out: Minimum Inhibitory Concentration
Method: as §1, §2

Ser. marcescens A20019 = assay: MIC against specific test organism; settings: Serratia marcescens, read-out: Minimum Inhibitory Concentration
Method: as §1, §2

E. coli Juhl = assay: MIC against specific test organism; settings: Escherichia coli, read-out: Minimum Inhibitory Concentration
Method: as §1, §2

Pr. mirabilis A9554 = assay: MIC against specific test organism; settings: Proteus mirabilis, read-out: Minimum Inhibitory Concentration
Method: as §1, §2

S. aureus Smith = assay: MIC against specific test organism; settings: Staphylococcus aureus, read-out: Minimum Inhibitory Concentration
Method: as §1, §2

E. coli A15164 = assay: MIC against specific test organism; settings: Escherichia coli; E. coli A15164, cephalothin-resistant strain; read-out: Minimum Inhibitory Concentration
Method: as §1, §2

S. aureus BX-1633-2 = assay: MIC against specific test organism; settings: Staphylococcus aureus, BX16332; S. aureus BX-1633-2, penicillin-resistant strain; read-out: Minimum Inhibitory Concentration
Method: as §1, §2

Ent. cloacae A9656 = assay: MIC against specific test organism; settings: Enterobacter cloacae, read-out: Minimum Inhibitory Concentration
Method: as §1, §2

Ps. aeruginosa A9843 = assay: MIC against specific test organism; settings: Pseudomonas aeruginosa, read-out: Minimum Inhibitory Concentration
Method: as §1, §2

Ps. aeruginosa A15150 = assay: MIC against specific test organism; settings: Pseudomonas aeruginosa, read-out: Minimum Inhibitory Concentration
Method: as §1, §2

K. pneumoniae D11 = assay: MIC against specific test organism; settings: Klebsiella pneumoniae, read-out: Minimum Inhibitory Concentration
Method: as §1, §2

Ps. aeruginosa = assay: MIC, two-fold serial agar dilution in Mueller-Hinton agar, group (G-)-III; settings: Pseudomonas aeruginosa, Ps. aeruginosa (6 strains), read-out: Geometric Mean of MIC
Method: as §1

[2] = tested on: Cephalothinsensitive E. coli, Kl. pneumoniae and Pr. mirabilis; assay: MIC, two-fold serial agar dilution in Mueller-Hinton agar, group (G-)-Ia; settings: read-out: Geometric Mean of MIC
Method: as §1
(G-)Ia: Cephalothinsensitive E. coli (2 strains), Kl. pneumoniae (1
strain) and Pr. mirabilis (2 strains)

[3] = tested on: M. morganii, Ent. cloacae and Ser. marcescens; assay: MIC, two-fold serial agar dilution in Mueller-Hinton agar, group (G-)-II; settings: read-out: Geometric Mean of MIC
Method: as §1
(G-)II: M. morganii (1 strain), Ent. cloacae (2 strains) and Ser.

[4] = tested on: Cephalothinresistant E. coli and Kl. pneumoniae; assay: MIC, two-fold serial agar dilution in Mueller-Hinton agar, group (G-)-Ib; settings: read-out: Geometric Mean of MIC
Method: as §1
(G-)Ib: Cephalothinresistant E. coli (3 strains) and Kl. pneumoniae (3

[5] = tested on: Penicillinsensitive S. aureus; assay: MIC, two-fold serial agar dilution in Mueller-Hinton agar, group (G+)-Ia; settings: Staphylococcus aureus, read-out: Geometric Mean of MIC
Method: as §1

[6] = (G-)-Ia, cephalothin-sensitive E. coli (2), Kl. pneumoniae (1), Pr. mirabilis (2 strains)
[7] = (G+)-Ia, penicillin-sensitive S. aureus (5 strains)
[8] = (G+)-Ib, penicillin-resistant S. aureus (5 strains)
[9] = (G-)-II, M. morganii (1), Ent. cloacae (2), Ser. marcescens (2 strains)

| SMILES | MIC (Ps. aeruginosa) [µg/mL] | MIC [2, 6] [µg/mL] | MIC [3] [µg/mL] | MIC [4] [µg/mL] | MIC [5, 7] [µg/mL] | MIC [1, 8] [µg/mL] | MIC [3, 9] [µg/mL] | further results |
| --- | --- | --- | --- | --- | --- | --- | --- | --- |
| CCO/N=C(\C(=O)NC1C(=O)N2C(C(=O)[O-])=C(C[n+]3ccsc3SC)CS[C@H]12)c1csc(N)n1 (stereo partly shown) [Example 4, 7-[(Z)-2-(2-Aminothiazol-4-yl)-2-(ethoxyimino)acetamido]-3-(2-methylthiothiazolio)methyl-3-cephem-4-carboxylate] | 5.6 (≈ 10.4 µM) | 0.076 (≈ 0.141 µM) | 0.69 (≈ 1.28 µM) | 0.32 (≈ 0.592 µM) | 0.35 (≈ 0.647 µM) | – | – | MIC [1]: 0.61 µg/mL (≈ 1.13 µM); MIC (K. pneumoniae A9867): 1.6 µg/mL (≈ 2.96 µM); MIC (Ps. aeruginosa A20717): 12.5 µg/mL (≈ 23.1 µM); MIC (M. morganii A9553): 0.4 µg/mL (≈ 0.74 µM); MIC (Ser. marcescens A20019): 0.1 µg/mL (≈ 0.185 µM); MIC (E. coli Juhl): 0.1 µg/mL (≈ 0.185 µM); MIC (Pr. mirabilis A9554): 0.2 µg/mL (≈ 0.37 µM); MIC (S. aureus Smith): 0.4 µg/mL (≈ 0.74 µM); MIC (E. coli A15164): 0.2 µg/mL (≈ 0.37 µM); MIC (S. aureus BX-1633-2): 0.4 µg/mL (≈ 0.74 µM); MIC (Ent. cloacae A9656): 0.2 µg/mL (≈ 0.37 µM); MIC (Ps. aeruginosa A9843): 12.5 µg/mL (≈ 23.1 µM); MIC (Ps. aeruginosa A15150): 3.1 µg/mL (≈ 5.73 µM); MIC (K. pneumoniae D11): 0.1 µg/mL (≈ 0.185 µM) |
| CC(C)(O/N=C(\C(=O)NC1C(=O)N2C(C(=O)[O-])=C(C[n+]3ccsc3)CSC12)c1csc(N)n1)C(=O)O (stereo not shown) [Example 5, 7-[(Z)-2-(2-Aminothiazol-4-yl)-2-(2-carboxyprop-2-oxyimino)acetamido]-3-thiazoliomethyl-3-cephem-4-carboxylate] | 3.1 (≈ 5.61 µM) | 0.13 (≈ 0.235 µM) | 3.6 (≈ 6.51 µM) | 2.5 (≈ 4.52 µM) | 8.3 (≈ 15 µM) | 25 (≈ 45.2 µM) | – | – |
| Cc1c(CCO)sc[n+]1CC1=C(C(=O)[O-])N2C(=O)C(NC(=O)/C(=N\OC(C)(C)C(=O)O)c3csc(N)n3)C2SC1 (stereo not shown) [Example 6, 7-[(Z)-2-(2-Aminothiazol-4-yl)-2-(2-carboxyprop-2-oxyimino)acetamido]-3-[5-(2-hydroxyethyl)-4-methylthiazolio]methyl-3-cephem-4-carboxylate] | 4.4 (≈ 7.2 µM) | 0.076 (≈ 0.124 µM) | – | 1.8 (≈ 2.95 µM) | 8.3 (≈ 13.6 µM) | 25 (≈ 40.9 µM) | 2.8 (≈ 4.58 µM) | – |
| Cc1csc[n+]1CC1=C(C(=O)[O-])N2C(=O)C(NC(=O)/C(=N\OC(C)(C)C(=O)O)c3csc(N)n3)C2SC1 (stereo not shown) [Example 7, 7-[(Z)-2-(2-Aminothiazol-4-yl)-2-(2-carboxyprop-2-oxyimino)acetamido]-3-(4-methylthiazolio)methyl-3-cephem-4-carboxylate] | 4 (≈ 7.06 µM) | 0.076 (≈ 0.134 µM) | – | 1.8 (≈ 3.18 µM) | 7.2 (≈ 12.7 µM) | 12.5 (≈ 22.1 µM) | 2.8 (≈ 4.94 µM) | – |
| CC(C)(O/N=C(\C(=O)NC1C(=O)N2C(C(=O)[O-])=C(C[n+]3ccsc3N)CS[C@H]12)c1csc(N)n1)C(=O)O (stereo partly shown) [Example 8, 7-[(Z)-2-(2-Aminothiazol-4-yl)-2-(2-carboxyprop-2-oxyimino)acetamido]-3-(2-amino-3-thiazolio)methyl-3-cephem-4-carboxylate] | 5.6 (≈ 9.87 µM) | 0.15 (≈ 0.264 µM) | – | 4 (≈ 7.05 µM) | 5.5 (≈ 9.69 µM) | 14 (≈ 24.7 µM) | 8.3 (≈ 14.6 µM) | – |
| COc1sc[n+](CC2=C(C(=O)[O-])N3C(=O)C(NC(=O)/C(=N\OC(C)(C)C(=O)O)c4csc(N)n4)C3SC2)c1C (stereo not shown) [Example 9, 7-[(Z)-2-(2-Aminothiazol-4-yl)-2-(2-carboxyprop-2-oxyimino)acetamido]-3-(5-methoxy-4-methylthiazolio)methyl-3-cephem-4-carboxylate] | 6.3 (≈ 10.6 µM) | 0.1 (≈ 0.168 µM) | – | 1.6 (≈ 2.68 µM) | 9.5 (≈ 15.9 µM) | – | 2.8 (≈ 4.69 µM) | MIC [1]: 16 µg/mL (≈ 26.8 µM) |
| CO/N=C(\C(=O)NC1C(=O)N2C(C(=O)[O-])=C(C[n+]3csc(CCN)c3C)CSC12)c1csc(N)n1 (stereo not shown) [Example 10, 7-[(Z)-2-(2-Aminothiazol-4-yl)-2-methoxyiminoacetamido]-3-[5-(2-aminoethyl)-4-methylthiazolio]methyl-3-cephem-4-carboxylate] | 22 (≈ 40.9 µM) | 0.8 (≈ 1.49 µM) | 5.5 (≈ 10.2 µM) | 1.4 (≈ 2.6 µM) | 2.1 (≈ 3.91 µM) | 6.3 (≈ 11.7 µM) | – | – |
| Cc1scc[n+]1CC1=C(C(=O)[O-])N2C(=O)C(NC(=O)/C(=N\OC3(C(=O)O)CCC3)c3csc(N)n3)[C@H]2SC1 (stereo partly shown) [Example 11, 7-[(Z)-2-(2-Aminothiazol-4-yl)-2-(1-carboxycyclobut-1-oxyimino)acetamido]-3-(2-methylthiazolio)methyl-3-cephem-4-carboxylate] | 2.1 (≈ 3.63 µM) | 0.076 (≈ 0.131 µM) | – | 1.6 (≈ 2.77 µM) | 4.2 (≈ 7.26 µM) | 9.5 (≈ 16.4 µM) | 0.4 (≈ 0.691 µM) | – |
| CCSc1scc[n+]1CC1=C(C(=O)[O-])N2C(=O)C(NC(=O)/C(=N\OC3(C(=O)O)CCC3)c3csc(N)n3)[C@H]2SC1 (stereo partly shown) [Example 12, 7-[(Z)-2-(2-Aminothiazol-4-yl)-2-(1-carboxycyclobut-1-oxyimino)acetamido]-3-(2-ethylthiothiazolio)methyl-3-cephem-4-carboxylate] | 5.7 (≈ 9.12 µM) | 0.066 (≈ 0.106 µM) | – | 0.79 (≈ 1.26 µM) | 1.8 (≈ 2.88 µM) | 4.7 (≈ 7.52 µM) | 0.4 (≈ 0.64 µM) | – |
| CC(C)(O/N=C(\C(=O)NC1C(=O)N2C(C(=O)[O-])=C(C[n+]3ccsc3SCC(=O)O)CS[C@H]12)c1csc(N)n1)C(=O)O (stereo partly shown) [Example 13, 7-[(Z)-2-(2-Aminothiazol-4-yl)-2-(2-carboxyprop-2-oxyimino)acetamido]-3-(2-carboxymethylthiothiazolio)methyl-3-cephem-4-carboxylate] | 23 (≈ 35.8 µM) | 0.26 (≈ 0.405 µM) | – | 4 (≈ 6.22 µM) | 25 (≈ 38.9 µM) | 50 (≈ 77.8 µM) | 1.6 (≈ 2.49 µM) | – |
| CC(C)(O/N=C(\C(=O)NC1C(=O)N2C(C(=O)[O-])=C(C[n+]3ccsc3NC=O)CS[C@H]12)c1csc(N)n1)C(=O)O (stereo partly shown) [Example 14, 7-[2-(Z)-(2-Aminothiazol-4-yl)-2-(2-carboxyprop-2-yloxyimino)acetamido]-3-(2-formylaminothiazolio)methyl-3-cephem-4-carboxylate] | 7 (≈ 11.8 µM) | 0.15 (≈ 0.252 µM) | – | 3.6 (≈ 6.04 µM) | 5.5 (≈ 9.23 µM) | 12.5 (≈ 21 µM) | 3.2 (≈ 5.37 µM) | – |
| CNc1scc[n+]1CC1=C(C(=O)[O-])N2C(=O)C(NC(=O)/C(=N\OC(C)(C)C(=O)O)c3csc(N)n3)[C@H]2SC1 (stereo partly shown) [Example 15, 7-[(Z)-2-(2-Aminothiazol-4-yl)-2-(2-carboxyprop-2-oxyimino)acetamido]-3-(2-methylaminothiazolio)methyl-3-cephem-4-carboxylate] | 13 (≈ 22.3 µM) | 0.4 (≈ 0.688 µM) | 3.6 (≈ 6.19 µM) | 5.5 (≈ 9.46 µM) | 7.2 (≈ 12.4 µM) | 25 (≈ 43 µM) | – | – |
| CSc1scc(C)[n+]1CC1=C(C(=O)[O-])N2C(=O)C(NC(=O)/C(=N\OC(C)(C)C(=O)O)c3csc(N)n3)[C@H]2SC1 (stereo partly shown) [Example 16, 7-[(Z)-2-(2-Aminothiazol-4-yl)-2-(2-carboxyprop-2-oxyimino)acetamido]-3-(4-methyl-2-methylthiothiazolio)methyl-3-cephem-4-carboxylate] | 2.8 (≈ 4.57 µM) | 0.1 (≈ 0.163 µM) | – | 0.79 (≈ 1.29 µM) | 4.2 (≈ 6.85 µM) | 19 (≈ 31 µM) | 0.53 (≈ 0.865 µM) | – |
| C#CCO/N=C(\C(=O)NC1C(=O)N2C(C(=O)[O-])=C(C[n+]3ccsc3SC)CS[C@H]12)c1csc(N)n1 (stereo partly shown) [Example 17, 7-[(Z)-2-(2-Aminothiazol-4-yl)-2-propargyloxyiminoacetamido]-3-(2-methylthiothiazolio)methyl-3-cephem-4-carboxylate] | 6.9 (≈ 12.5 µM) | – | 0.69 (≈ 1.25 µM) | 0.6 (≈ 1.09 µM) | – | – | – | MIC [1]: 0.8 µg/mL (≈ 1.45 µM); MIC [2]: 0.66 µg/mL (≈ 1.2 µM); MIC [5]: 0.23 µg/mL (≈ 0.418 µM) |
